Test results taken from US8388930B2, “Diagnosis and assessment of skeletal related disease using calcium 41” (Lawrence LIvermore National Security, LLC, priority 2004, dated 2013).

Experiments:
[1] = urinary 41Ca/Ca variability in monthly urine samples after oral 41Ca dose; assay type: in vivo; details: days 500 to 700 after 1.2 ng oral 41Ca dose, six human volunteers
Text: ^41Ca remains quantifiable via accelerator mass spectrometry (AMS) in human urine and blood for many years following a single chemically and radiologically benign oral or intravenous dose; this longevity makes urinary ^41Ca content very specific to bone turnover. […] Applicants also measured tracer distribution and increased ^41Ca release from pre-labeled bones in a human xenograft model of metastatic bone disease from prostate cancer. […] Low natural variability of urinary ^41Ca/Ca in humans will enable a non-invasive, highly sensitive clinical measure of bone turnover perturbations from metastatic bone disease.

[2] = test system: human xenograft model of metastatic bone disease from prostate cancer; experiment: tracer distribution and 41Ca release from pre-labeled bones in human xenograft model of metastatic bone disease; assay type: in vivo, nude mice
Text: However, the ultimate value of these techniques for individual patients is uncertain, due (in part) to high natural variability of biomarkers in urine and serum (Kannis J A, McCloskey E V. Bone turnover and biochemical markers in malignancy. Cancer. 1997; 80:1538-45). Applicants believe that labeling the human skeleton with a ^41Ca tracer and monitoring urinary tracer abundance will provide a non-invasive, highly sensitive, clinically useful measure of bone turnover. The longest half-life isotope of calcium, ^41Ca, provides a sensitive method for tracking short and long-term bone turnover parameters. Due to extremely low natural abundance (<10^−15), a single sub-physiological ^41Ca dose (less than 1 ug=4 kBq=0.1 uCi) remains quantifiable via accelerator mass spectrometry (AMS) in blood and urine for many years: this longevity within the body's primary calcium pool makes ^41Ca variation specific to bone turnover (Weaver C M. Use of calcium tracers and biomarkers to determine calcium kinetics and bone turnover. Bone. 1998; 22(5):103S-104S). […]
^41Ca remains quantifiable via accelerator mass spectrometry (AMS) in human urine and blood for many years following a single chemically and radiologically benign oral or intravenous dose; this longevity makes urinary ^41Ca content very specific to bone turnover. […]

[3] = cited from earlier work

41Ca/Ca scatter about individual linear fits [1]: 5±3%
tracer distribution ([2]; human xenograft tumor model in nude mice): preferentially labels bone
SMILES: [41Ca] [^41Ca, radioactive calcium isotope ^41Ca]
serum 41Ca/Ca correlation with disease measures ([2]; serum, pre-labeled bones, xenograft model of prostate cancer bone metastasis): positively correlating with tumor size, skeletal disruption, serum tumor markers, and degree of hypercalcemia
lifetime radioactive exposure from ingested dose ([3]; ingested): < 2e-10 Sv/Bq
lifetime radioactive exposure from injected dose ([3]; injected): < 7e-10 Sv/Bq
